Like-named read-outs stand apart in the source and are kept apart here.
How the values were obtained:
LS-411N = assay: Drug combination screen (ATPlite, Synergy Score), LS-411N; assay type: cell-based, human
SNU-C2B = assay: Drug combination screen (ATPlite, Synergy Score), SNU-C2B
DLD-1 = assay: Drug combination screen (ATPlite, Synergy Score), DLD-1
SW480 = assay: Drug combination screen (ATPlite, Synergy Score), SW480; assay type: cell-based, human
HCT 116 = assay: Drug combination screen (ATPlite, Synergy Score), HCT 116
[1] = compound in combination with IgG1-hDR5-01-G56T-E430G + IgG1-hDR5-05-E430G, LS-411N, 72 hour ATPlite, 6x6 matrix
[2] = compound in combination with IgG1-hDR5-01-G56T-E430G + IgG1-hDR5-05-E430G, SNU-C2B, 72 hour ATPlite, 6x6 matrix
[3] = compound in combination with IgG1-hDR5-01-G56T-E430G + IgG1-hDR5-05-E430G, DLD-1, 120 hour ATPlite, 6x6 matrix
[4] = compound in combination with IgG1-hDR5-01-G56T-E430G + IgG1-hDR5-05-E430G, SW480, 72 hour ATPlite, 6x6 matrix
[5] = compound in combination with IgG1-hDR5-01-G56T-E430G + IgG1-hDR5-05-E430G, HCT 116, 120 hour ATPlite, 6x6 matrix

SMILES | Synergy Score LS-411N (LS-411N; [1]) | Synergy Score SNU-C2B (SNU-C2B; [2]) | Synergy Score DLD-1 (DLD-1; [3]) | Synergy Score SW480 (SW480; [4]) | Synergy Score HCT-116 (HCT 116; [5]) | Synergy Score LS-411N (LS-411N) | Synergy Score SNU-C2B (SNU-C2B) | Synergy Score DLD-1 (DLD-1) | Synergy Score SW480 (SW480) | Synergy Score HCT-116 (HCT 116)
CO[C@H]1C[C@@H]2CC[C@@H](C)[C@@](O)(O2)C(=O)C(=O)N2CCCC[C@H]2C(=O)O[C@H]([C@H](C)C[C@@H]2CC[C@@H](OCCO)[C@H](OC)C2)CC(=O)[C@H](C)/C=C(\C)[C@@H](O)[C@@H](OC)C(=O)[C@H](C)C[C@H](C)/C=C/C=C/C=C/1C [Everolimus] | 0.3 | 3.2 | 0.4 | 1.6 | 0.4 | – | – | – | – | –
CS(=O)(=O)c1ccc(C(=O)Nc2ccc(Cl)c(-c3ccccn3)c2)c(Cl)c1 [GDC-0449] | 0.2 | 0.3 | 0.1 | 0.1 | 0 | – | – | – | – | –
OCCn1cc(-c2ccc3c(c2)CC/C3=N\O)c(-c2ccncc2)n1 [GDC-0879] | 0.4 | 0.7 | 0.1 | 1.6 | 0.2 | – | – | – | – | –
CS(=O)(=O)N1CCN(Cc2cc3nc(-c4cccc5[nH]ncc45)nc(N4CCOCC4)c3s2)CC1 [GDC-0941] | 12.4 | 7.1 | 4.9 | 12.9 | 2 | – | – | – | – | –
CN(C)CCCn1cc(C2=C(c3c[nH]c4ccccc34)C(=O)NC2=O)c2ccccc21 [GF 109203X] | – | – | – | – | – | 5.3 | 1.6 | 4.3 | 6.2 | 3
O=C1NC(=O)/C(=C/c2ccc3nccc(-c4ccncc4)c3c2)S1 [GSK1059615] | 0.4 | 0.8 | 0.4 | 1.7 | 0.6 | – | – | – | – | –
CCc1cc(Nc2nccc(-c3c(-c4ccc(OC)c(C(=O)Nc5c(F)cccc5F)c4)nc4ccccn34)n2)c(OC)cc1N1CCC(N2CCN(S(C)(=O)=O)CC2)CC1 [GSK1904529A] | 6 | 2.7 | 1.4 | 2.2 | 0.2 | – | – | – | – | –
Nc1ccn([C@@H]2O[C@H](CO)[C@@H](O)C2(F)F)c(=O)n1 [Gemcitabine] | 5.7 | 18.5 | 20.3 | 31.1 | 12.2 | – | – | – | – | –
Cn1c2ccccc2c2c3c(c4c5ccccc5n(CCC#N)c4c21)CNC3=O [Go 6976] | 1.9 | 1.7 | 2.9 | 3.1 | 0.9 | – | – | – | – | –
CNC(=O)c1ccc(-c2cnc3ncc(Cc4ccc5ncccc5c4)n3n2)cc1F [INCB28060] | 0 | 0.4 | 0.2 | 0 | 0.1 | – | – | – | – | –
C[C@H](Nc1ncnc2nc[nH]c12)c1cc2cccc(Cl)c2c(=O)n1-c1ccccc1 [IPI-145] | 0.2 | 1 | 0 | 0.1 | 0 | – | – | – | – | –
COc1cc(C(=O)O)ccc1NC(=O)[C@@H]1N[C@@H](CC(C)(C)C)[C@](C#N)(c2ccc(Cl)cc2F)[C@H]1c1cccc(Cl)c1F [Idasanutlin] | 16.3 | 10.4 | 6.3 | 6.1 | 3.2 | – | – | – | – | –
Cn1cc(-c2ccc3nnc(C(F)(F)c4ccc5ncccc5c4)n3n2)cn1 [JNJ-38877605] | 0.1 | 0.1 | 0.1 | 0 | 0 | – | – | – | – | –
Cc1cc(NC(=O)c2cccc(NC(=O)/C=C/CN(C)C)c2)ccc1Nc1nccc(-c2cccnc2)n1 [JNK-IN-8] | 0.1 | 1.1 | 0.2 | 0.4 | 0 | – | – | – | – | –
Nc1cccc2c1CN(C1CCC(=O)NC1=O)C2=O (stereo not shown) [Lenalidomide] | 0.1 | 0.2 | 0 | 0 | 0 | – | – | – | – | –
COCCNCc1ccc(-c2cc3nccc(Oc4ccc(NC(=S)NC(=O)Cc5ccc(F)cc5)cc4F)c3s2)nc1 [MGCD-265] | 0.7 | 3.1 | 0.2 | 0.5 | 0.1 | – | – | – | – | –
Cc1ccc(NC(=O)c2ccc(CN3CCN(C)CC3)cc2)cc1Nc1nc(-c2cccnc2)cs1 [Masitinib] | 1.4 | 1.7 | 0.6 | 1.9 | 0.3 | – | – | – | – | –
C[C@H]1C[C@@H]2[C@H]([C@@H](O)C[C@@]3(C)[C@H]2CC[C@]3(O)C(=O)CO)[C@@]2(C)C=CC(=O)C=C12 [Methylprednisolone] | 0 | 0.6 | 0 | 0 | 0 | – | – | – | – | –
C[C@]1(O)C[C@@H](c2nc(-c3ccc4ccc(-c5ccccc5)nc4c3)c3c(N)nccn32)C1 [OSI-906] | 1.7 | 1 | 0.5 | 3.5 | 0.1 | – | – | – | – | –
COC1=CC(c2cc3ccccc3[nH]2)=N/C1=C\c1[nH]c(C)cc1C [Obatoclax] | 22.8 | 4.7 | 6.1 | 11.8 | 1.6 | – | – | – | – | –
O=C(c1cc(Cc2n[nH]c(=O)c3ccccc23)ccc1F)N1CCN(C(=O)C2CC2)CC1 [Olaparib] | 2.7 | 2.5 | 0.7 | 1 | 1.8 | – | – | – | – | –
C=CCc1cccc(/C=N/NC(=O)CN2CCN(Cc3ccccc3)CC2)c1O [PAC 1] | 2.9 | 6 | 10.6 | 3.9 | 4.2 | – | – | – | – | –
CC(=O)Nc1nc(C)c(-c2ccc(Cl)c(S(=O)(=O)NCCO)c2)s1 [PIK-93] | – | – | – | – | – | 5.2 | 5.1 | 1 | 4.1 | 1.2
CCCS(=O)(=O)Nc1ccc(F)c(C(=O)c2c[nH]c3ncc(-c4ccc(Cl)cc4)cc23)c1F [PLX-4032] | 0.6 | 0.5 | 0.6 | 1 | 0.1 | – | – | – | – | –
Nc1cccc2c1C(=O)N(C1CCC(=O)NC1=O)C2=O (stereo not shown) [Pomalidomide] | 0 | 0.5 | 0.1 | 0 | 0 | – | – | – | – | –
C[C@]12C=CC(=O)C=C1CC[C@@H]1[C@@H]2C(=O)C[C@@]2(C)[C@H]1CC[C@]2(O)C(=O)CO [Prednisone] | 0.1 | 0.2 | 0.1 | 0 | 0 | – | – | – | – | –
